Test [1] deals with rats. Put plainly: Radial arm maze task in rats, an in vivo test for learning and memory. The following applies: rat, MK-801 0.1 mg/kg i.p., p<0.01. Here is the method:
The test was performed as previously described (Zhang, H.-T., Crissman, A. M., Dorairaj, N. R., Chandler, L. J., and O'Donnell, J. M., Neuropsychopharmacology, 2000, 23, 198-204.). Five days after initial housing, rats (male Spraque-Dawley (Harlan) weighing 250 to 350 g) were placed in the eight-arm radial maze (each arm was 60×10×12 cm high; the maze was elevated 70 cm above the floor) for acclimation for two days. Rats were then placed individually in the center of the maze for 5 minutes with food pellets placed close to the food wells, and then, the next day, in the wells at the end of the arms; 2 sessions a day were conducted. Next, four randomly selected arms were then baited with one pellet of food each. The rat was restricted to the center platform (26 cm in diameter) for 15 seconds and then allowed to move freely throughout the maze until it collected all pellets of food or 10 minutes passed, whichever came first.
Four parameters were recorded: 1) working memory errors, i.e., entries into baited arms that had already been visited during the same trial; 2) reference memory errors, i.e., entries into unbaited arms; 3) total arm entries; and 4) the test duration (seconds), i.e., the time spent in the collection of all the pellets in the maze. […]
(§1) All data were analyzed by analyses of variance (ANOVA); individual comparisons were made using Kewman-Keuls tests. […]

In test [2] the test system is rats. Put plainly: Passive avoidance in rats, an in vivo test for learning and memory. The note with it: rat, MK-801 0.1 mg/kg, 24 hours after electric shock, p<0.001. Here is the method: The test was performed as previously described (Zhang, H.-T., Crissman, A. M., Dorairaj, N. R., Chandler, L. J., and O'Donnell, J. M., Neuropsychopharmacology, 2000, 23, 198-204.). The apparatus (Model E10-16SC, Coulboum Instruments, Allentown, Pa.) consisted of a two-compartment chamber with an illuminated compartment connected to a darkened compartment by a guillotine door. The floor of the darkened compartment consisted of stainless steel rods through which an electric foot-shock could be delivered from a constant current source. All experimental groups were first habituated to the apparatus the day before the start of the experiment. During the training, the rat (Male Spraque-Dawley (Harlan) weighing 250 to 350 g) was placed in the illuminated compartment facing away from the closed guillotine door for 1 minute before the door was raised. The latency for entering the darkened compartment was recorded. After the rat entered the darkened compartment, the door was closed and a 0.5 mA electric shock was administered for 3 seconds. […] The latency for entering the darkened compartment was recorded for up to 180 seconds, at which time the trial was terminated.
as §1

Structures are written as SMILES.

`C[C@]12N[C@H](Cc3ccccc31)c1ccccc12` [MK-801]: the “frequencies of working and reference memory errors compared to control” value in the test with rats [1] was “increased the frequencies of both working and reference memory errors”. Further, in the test on rats [2], the “latency for entering the darkened compartment compared to the vehicle” value was “markedly reduced this latency”.

(Values after US20070049611A1, “Phosphodiesterase 4 inhibitors” (priority 2005, published 2007).)
